The source of these data is patent US20220125051A1, “PRE-HARVEST DESICCATION METHOD” (SYNGENTA CROP PROTECTION AG, priority 2019, published 2022).

The structures appear in SMILES notation.

Common to all, as to test: Post-emergence efficacy, Method A
Common to all, as to assay type: in vivo

Test [1] relates to Amaranthus palmeri (AMAPA). The settings on record: Amaranthus palmeri, post-emergence, 312 h; Application rate 500 g/Ha; evaluated after 13 days; 100=total damage to plant, 0=no damage to plant; read-out: Control of weed species after post-emergence application, AMAPA. The essentials:
(§1)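 Post-emergence spray on 14-day-old glasshouse plants (24/16 °C day/night, 14 h photoperiod, 65% humidity). Test material was taken up in acetone and IF50 emulsifier mix, then diluted with sodium lauryl ether sulphate (0.25% or 1%) plus 1% ammonium sulphate. Damage was rated 13 days later, 100 = total.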

The subject of test [2] is Setaria faberi (SETFA). The conditions noted are these: Setaria faberi, post-emergence, 312 h; Application rate 500 g/Ha; evaluated after 13 days; 100=total damage to plant, 0=no damage to plant; read-out: Control of weed species after post-emergence application, SETFA. The gist of the method:
as §1

Test [3] relates to Lolium perenne (LOLPE). The settings on record: Lolium perenne, post-emergence, 312 h, Application rate 500 g/Ha; evaluated after 13 days; 100=total damage to plant, 0=no damage to plant; read-out: Control of weed species after post-emergence application, LOLPE. The essentials: as §1
Test [4] deals with Chenopodium album (CHEAL). The conditions noted are these: Chenopodium album, post-emergence, 312 h; Application rate 500 g/Ha; evaluated after 13 days; 100=total damage to plant, 0=no damage to plant; read-out: Control of weed species after post-emergence application, CHEAL. The essentials: as §1
Test [5] has as its system Echinochloa crus-galli (ECHCG). The settings on record: Echinochloa crus-galli, post-emergence, 312 h; Application rate 500 g/Ha; evaluated after 13 days; 100=total damage to plant, 0=no damage to plant; read-out: Control of weed species after post-emergence application, ECHCG. The gist of the method: as §1
The subject of test [6] is Eleusine indica (ELEIN). The conditions noted are these: Eleusine indica, post-emergence, 312 h; Application rate 500 g/Ha; evaluated after 13 days; 100=total damage to plant, 0=no damage to plant; read-out: Control of weed species after post-emergence application, ELEIN. The essentials: as §1
For test [7], the system named is Euphorbia heterophylla (EPHHL). The settings on record: Euphorbia heterophylla, post-emergence, 312 h; Application rate 500 g/Ha; evaluated after 13 days; 100=total damage to plant, 0=no damage to plant; read-out: Control of weed species after post-emergence application, EPHHL. The essentials: as §1
Test [8] deals with Digitaria sanguinalis (DIGSA). The settings on record: Digitaria sanguinalis, post-emergence, 312 h; Application rate 500 g/Ha; evaluated after 13 days; 100=total damage to plant, 0=no damage to plant; read-out: Control of weed species after post-emergence application, DIGSA. The gist of the method: as §1
Test [9] relates to Ipomoea hederacea (IPOHE). The settings on record: Ipomoea hederacea, post-emergence, 312 h, Application rate 500 g/Ha; evaluated after 13 days; 100=total damage to plant, 0=no damage to plant; read-out: Control of weed species after post-emergence application, IPOHE. The essentials:
as §1

Consider `Cc1cc(=O)[nH]c(-c2cc[n+](CCS(=O)(=O)[O-])nc2)n1` [Compound A95], for which the pest or weed control at 500 g/ha was found to be 30% in [1]; 50% in test [2]; 20% in [3]; 40% in test [4]; 50% in test [5]; 30% in test [6]. Also, the figures for the pest or weed control at 500 g/ha in test [7], in [8] and in test [9] were 40%, 40% and 30%, respectively.

As to `Cc1cnc(-c2cc[n+](CCC(=O)[O-])nc2)nc1C` [Compound A96], the pest or weed control at 500 g/ha in test [1] was found to be 70%; in test [2], 70%; in test [3] it was 60%; in test [4], 20%; in test [5] it was 70%; in test [6], 40%. The pest or weed control at 500 g/ha stood at 90% in test [7], 40% in [8] and 40% in test [9].

`Cc1cnc(-c2cc[n+](CCS(=O)(=O)[O-])nc2)nc1C` [Compound A97]: the pest or weed control at 500 g/ha in [1] came out at 90%; in test [2], 90%; in test [3], 70%; in test [4] it was 20%; in test [5], 90%; in test [6], 90%. Further, the pest or weed control at 500 g/ha in [7] was found to be 70%; in test [8] it was 90%; in [9], 30%.

With `O=S(=O)([O-])CCC[n+]1ccc(-c2cnc(F)cn2)cn1` [Compound A98], the pest or weed control at 500 g/ha in test [1] is 40%; in test [2], 20%; in test [3], 0%; in [4], 20%; in [5], 20%; in test [6], 20%. Further, the pest or weed control at 500 g/ha was 40% in test [7], 10% in [8] and 30% in test [9].

`Cc1nc(-c2cc[n+](CCS(=O)(=O)[O-])nc2)ncc1Cl` [Compound A99]: the pest or weed control at 500 g/ha in test [1] came to 80%; in test [2] it was 50%; in test [3] it was 20%; in test [4], 30%; in test [5] it was 50%; in [6], 80%. The pest or weed control at 500 g/ha in [7] is 90%; in [8], 40%; in [9], 30%.

On to `Cc1nc(-c2cc[n+](CCC(=O)[O-])nc2)ncc1Cl` [Compound A100], for which the pest or weed control at 500 g/ha stood at 60% in test [1]; 20% in test [2]; 10% in [3]; 60% in test [4]; 70% in test [5]; 60% in [6]. The pest or weed control at 500 g/ha was 90% in test [7], 40% in test [8] and 20% in test [9].

Turning to `COc1ccnc(-c2cc[n+](CCC(=O)[O-])nc2)n1` [Compound A101], the pest or weed control at 500 g/ha worked out at 80% in test [1]; 80% in test [2]; 70% in [3]; 70% in test [4]; 60% in [5]; 40% in test [6]. In addition, the results for the pest or weed control at 500 g/ha in test [7], in test [8] and in test [9] were 80%, 60% and 10%, respectively.
